Earlier results, collected in patent US20140100283A1, “Method to Increase Absorption and Bioavailability of Oral Glutathione” (Atlantic Pro Nutrients, Inc. dba XYMOGEN, priority 2012, published 2014).

Conditions: in vivo

For `N[C@@H](CCC(=O)N[C@@H](CS)C(=O)NCC(=O)O)C(=O)O` [glutathione, Glutathione], the “increase in circulating glutathione after oral administration” value is listed as “does not increase circulating glutathione to a clinically beneficial extent”.
